Experimental data published in patent publication US11591336B2 (Relay Therapeutics, Inc., priority 2017, dated 2023).
Where a name gives a salt, the structure may show the parent alone.

biological target: SHP2 (Homo sapiens (Human), UniProt Q06124); assay: SHP2 Allosteric Inhibition Assay (DiFMUP prompt fluorescence); assay type: biochemical; settings: 0.25 nM SHP2 activated with 0.5 μM peptide IRS1_pY1172(dPEG8)pY1222; substrate DiFMUP 100 μM; 25° C.

IC50, < 1000 nM:
C[C@@H]1OCC2(CCN(c3cnc4c(N5CCN(C(N)=O)c6ncccc65)n[nH]c4n3)CC2)[C@@H]1N [Compound 258, 1-{6-[(3S,4S)-4-amino-3-methyl-2-oxa-8-azaspiro[4.5]decan-8-yl]-1H-pyrazolo[3,4-b]pyrazin-3-yl}-1H,2H,3H,4H-pyrido[2,3-b]pyrazine-4-carboxamide hydrochloride]
C[C@@H]1OCC2(CCN(c3cnc4c(N5CCCc6nc(-c7cn[nH]c7)ccc65)n[nH]c4n3)CC2)[C@@H]1N [Compound 259]
C[C@@H]1OCC2(CCN(c3cnc4c(N5CCCc6nc(N7CC[C@@H](O)C7)ccc65)n[nH]c4n3)CC2)[C@@H]1N [Compound 260]
C[C@@H]1OCC2(CCN(c3cnc4c(N5CCCc6nc(N7CC[C@H](O)C7)ccc65)n[nH]c4n3)CC2)[C@@H]1N [Compound 261, (3S)-1-(5-{6-[(3S,4S)-4-amino-3-methyl-2-oxa-8-azaspiro[4.5]decan-8-yl]-1H-pyrazolo[3,4-b]pyrazin-3-yl}-5,6,7,8-tetrahydro-1,5-naphthyridin-2-yl)pyrrolidin-3-ol]
C[C@@H]1CCN(c2n[nH]c3nc(N4CCC5(CC4)CO[C@@H](C)[C@H]5N)cnc23)c2ccc(-c3cnn(C)c3)nc21 [Compound 266, (3S,4S)-3-methyl-8-{3-[(4R)-4-methyl-6-(1-methyl-1H-pyrazol-4-yl)-1,2,3,4-tetrahydro-1,5-naphthyridin-1-yl]-1H-pyrazolo[3,4-b]pyrazin-6-yl}-2-oxa-8-azaspiro[4.5]decan-4-amine]
C[C@@H]1OCC2(CCN(c3cnc4c(N5CCc6ncccc6C5)n[nH]c4n3)CC2)[C@@H]1N [Compound 267]
C[C@@H]1OCC2(CCN(c3cnc4c(N5CCc6ccccc6C5)n[nH]c4n3)CC2)[C@@H]1N [Compound 268]
C[C@@H]1OCC2(CCN(c3cnc4c(N5CCOc6ccccc6C5)n[nH]c4n3)CC2)[C@@H]1N [Compound 269]
C[C@@H]1OCC2(CCN(c3cnc4c(N5CCc6ccccc6C5=O)n[nH]c4n3)CC2)[C@@H]1N [Compound 270]
C[C@@H]1OCC2(CCN(c3cnc4c(N5CCc6cccnc6C5)n[nH]c4n3)CC2)[C@@H]1N [Compound 271]
C[C@@H]1OCC2(CCN(c3cnc4c(N5CCc6ccncc6C5)n[nH]c4n3)CC2)[C@@H]1N [Compound 272]
C[C@@H]1OCC2(CCN(c3cnc4c(N5CCc6cc(C#N)ccc6C5)n[nH]c4n3)CC2)[C@@H]1N [Compound 273]
C[C@@H]1OCC2(CCN(c3cnc4c(N5CCc6c(C#N)cccc6C5)n[nH]c4n3)CC2)[C@@H]1N [Compound 274]
C[C@@H]1OCC2(CCN(c3cnc4c(N5CC(=O)N(C)c6cc(C#N)ccc65)n[nH]c4n3)CC2)[C@@H]1N [Compound 275, 1-{6-[(3S,4S)-4-amino-3-methyl-2-oxa-8-azaspiro[4.5]decan-8-yl]-1H-pyrazolo[3,4-b]pyrazin-3-yl}-4-methyl-3-oxo-1,2,3,4-tetrahydroquinoxaline-6-carbonitrile]
C[C@@H]1OCC2(CCN(c3cnc4c(N5CCN(C)c6cnccc65)n[nH]c4n3)CC2)[C@@H]1N [Compound 276]
C[C@@H]1CCN(c2n[nH]c3nc(N4CCC5(CC4)CO[C@@H](C)[C@H]5N)cnc23)c2cccc(-c3cnn(C)c3)c21 [Compound 277]
C[C@@H]1OCC2(CCN(c3cnc4c(N5CC[C@H](C)c6c(-c7cnn(C)c7)cccc65)n[nH]c4n3)CC2)[C@@H]1N [Compound 278]
C[C@@H]1OCC2(CCN(c3cnc4c(N5CCCc6nc(-n7cncn7)ccc65)n[nH]c4n3)CC2)[C@@H]1N [Compound 279]
